Assay results: patent publication US20240366598A1, “GLUCOSE-DEPENDENT INSULINOTROPIC POLYPEPTIDE RECEPTOR ANTAGONISTS AND USES THEREOF” (Pfizer Inc., priority 2023, published 2024)

Molecular target: T1, human Glucose-dependent Insulinotropic Polypeptide Receptor (hGIPR) (Homo sapiens, UniProt P48546)
T1 sequence (P48546 22-466): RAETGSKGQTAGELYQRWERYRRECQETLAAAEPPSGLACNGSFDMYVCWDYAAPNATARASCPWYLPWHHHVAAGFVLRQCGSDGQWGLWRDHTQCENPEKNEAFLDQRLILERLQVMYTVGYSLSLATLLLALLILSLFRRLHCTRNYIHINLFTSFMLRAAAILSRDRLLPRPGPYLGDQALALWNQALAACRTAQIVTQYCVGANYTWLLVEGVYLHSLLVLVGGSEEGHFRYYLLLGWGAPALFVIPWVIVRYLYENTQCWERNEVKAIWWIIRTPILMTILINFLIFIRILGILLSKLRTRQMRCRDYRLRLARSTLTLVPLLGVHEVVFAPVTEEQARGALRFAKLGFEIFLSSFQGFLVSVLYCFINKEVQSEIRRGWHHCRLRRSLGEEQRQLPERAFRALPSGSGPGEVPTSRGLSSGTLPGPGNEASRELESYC
Assay: Functional in vitro GIPR antagonist potency assay (cAMP HTRF, CHO-K1 cells stably expressing hGIPR, hGIP stimulation at about EC80)
Format: cell-based
Conditions: geometric mean, hGIP at estimated EC80, examples marked ^2: overall geometric mean of multiple forms (including salts) tested
In short: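 HTRF quantification of cAMP after stimulation with hGIP at an estimated EC80 for 30 min at 37 °C. Before stimulation, hGIPR-expressing CHO-K1 cells were exposed 2 h to test compound in IBMX-containing buffer, with 0.5% DMSO final. Percent effect is referenced to agonist alone (0%) and to 80 μM of a reference antagonist (100%), and runs required the agonist concentration to fall within the on-the-day EC50–EC90.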

Work on `Cc1cc(NC(=O)N2CCC[C@@H]2C(=O)Nc2ccc(-c3ccc(C(=O)O)cn3)cc2)ccc1C(C)C` [Example 180, 6-{4-[(1-{[3-methyl-4-(propan-2-yl)phenyl]carbamoyl}-D-prolyl)amino]phenyl}pyridine-3-carboxylic acid] yielded an IC50 of 53 nM.

Compound `O=C(O)c1cccc(-c2ccc(NC(=O)[C@H]3CCCN3C(=O)Nc3ccc(C(F)(F)F)cc3)nc2)c1` [Example 181, 3-{6-[(1-{[4-(trifluoromethyl)phenyl]carbamoyl}-D-prolyl)amino]pyridin-3-yl}benzoic acid] has an IC50 of 24 nM.

Work on `CC(C)c1ccc(NC(=O)N2CCC[C@@H]2C(=O)Nc2ccc(-c3ccc(C(=O)O)cn3)cc2)cc1F` [Example 182, 6-{4-[(1-{[3-fluoro-4-(propan-2-yl)phenyl]carbamoyl}-D-prolyl)amino]phenyl}pyridine-3-carboxylic acid] yielded an IC50 of 23 nM.

With `Cc1cc(NC(=O)N2CCC[C@@H]2C(=O)Nc2ccc(-c3cccc(C(=O)O)c3)cn2)ccc1C(C)C` [Example 183, 3-{6-[(1-{[3-methyl-4-(propan-2-yl)phenyl]carbamoyl}-D-prolyl)amino]pyridin-3-yl}benzoic acid] the IC50 was 9.3 nM.

`Cc1cc(NC(=O)N2CCC[C@@H]2C(=O)Nc2ccc(-c3cccc(C(=O)O)c3)cn2)ncc1C(C)C` [Example 184, 3-{6-[(1-{[4-methyl-5-(propan-2-yl)pyridin-2-yl]carbamoyl}-D-prolyl)amino]pyridin-3-yl}benzoic acid] was tested, and the IC50 was 43 nM.

`Cc1cc(-c2ccc(NC(=O)[C@H]3CCCN3C(=O)Nc3ccc(C(C)C)c(C)c3)nc2)ccc1C(=O)O` [Example 185, 2-methyl-4-{6-[(1-{[3-methyl-4-(propan-2-yl)phenyl]carbamoyl}-D-prolyl)amino]pyridin-3-yl}benzoic acid] gave an IC50 of 4.2 nM.

`Cc1cc(NC(=O)N2CCC[C@@H]2C(=O)Nc2ccc(-c3ccc(C(=O)O)c(F)c3)cn2)ccc1C(F)(F)F` [Example 186, 2-fluoro-4-{6-[(1-{[3-methyl-4-(trifluoromethyl)phenyl]carbamoyl}-D-prolyl)amino]pyridin-3-yl}benzoic acid] showed an IC50 of 36 nM.

`Cc1cc(NC(=O)N2CCC[C@@H]2C(=O)Nc2ccc(-c3ccc(C(=O)O)c(F)c3)cn2)ccc1C(C)C` [Example 187, 2-fluoro-4-{6-[(1-{[3-methyl-4-(propan-2-yl)phenyl]carbamoyl}-D-prolyl)amino]pyridin-3-yl}benzoic acid] was tested, and the IC50 was 51 nM.

Work on `O=C(O)c1cccc(-c2ccc(NC(=O)[C@H]3CCCN3C(=O)Nc3ccc(Cl)c(C(F)(F)F)c3)nc2)c1` [Example 188, 3-{6-[(1-{[4-chloro-3-(trifluoromethyl)phenyl]carbamoyl}-D-prolyl)amino]pyridin-3-yl}benzoic acid] yielded an IC50 of 32 nM.

Work on `CC(C)c1ccc(CNC(=O)N2CCC[C@@H]2C(=O)Nc2ccc(-c3ccc(C(=O)O)c(F)c3)cn2)cc1` [Example 189, 2-fluoro-4-(6-{[1-({[4-(propan-2-yl)phenyl]methyl}carbamoyl)-D-prolyl]amino}pyridin-3-yl)benzoic acid] yielded an IC50 of 42 nM.

Compound `Cc1cc(-c2ccc(NC(=O)[C@H]3CCCN3C(=O)NCc3ccc(C(F)(F)F)c(F)c3)nc2)ccc1C(=O)O` [Example 190, 4-(6-{[1-({[3-fluoro-4-(trifluoromethyl)phenyl]methyl}carbamoyl)-D-prolyl]amino}pyridin-3-yl)-2-methylbenzoic acid] has an IC50 of 9.9 nM.

Compound `Cc1cc(-c2ccc(NC(=O)[C@H]3CCCN3C(=O)NCc3ccc(C(C)C)cc3)nc2)ccc1C(=O)O` [Example 191, 2-methyl-4-(6-{[1-{{[4-(propan-2-yl)phenyl]methyl}carbamoyl)-D-prolyl]amino}pyridin-3-yl)benzoic acid] has an IC50 of 14 nM.

`Cc1cc(-c2ccc(NC(=O)[C@H]3CCCN3C(=O)NCc3ccc(C(F)(F)F)cc3)nc2)ccc1C(=O)O` [Example 192, 2-methyl-4-(6-{[1-({[4-(trifluoromethyl)phenyl]methyl}carbamoyl)-D-prolyl]amino}pyridin-3-yl)benzoic acid] was tested, and the IC50 was 12 nM.

In the case of `O=C(O)c1ccc(-c2ncc(NC(=O)[C@H]3CCCN3C(=O)Nc3ccc(C(F)(F)F)cc3)cc2F)cc1` [Example 193, 4-{3-fluoro-5-[(1-{[4-(trifluoromethyl)phenyl]carbamoyl}-D-prolyl)amino]pyridin-2-yl}benzoic acid], the IC50 is reported as 17 nM.

`CC(C)c1ccc(NC(=O)N2CCC[C@@H]2C(=O)Nc2ccc(-c3ccc(C(=O)O)cc3)nc2)cc1F` [Example 194, 4-{5-[(1-{[3-fluoro-4-(propan-2-yl)phenyl]carbamoyl}-D-prolyl)amino]pyridin-2-yl}benzoic acid] gave an IC50 of 14 nM.

`O=C(O)c1ccc(-c2ccc(NC(=O)[C@H]3CCCN3C(=O)NCc3ccc(C(F)(F)F)cc3)cc2)cn1` [Example 195, 5-(4-{[1-({[4-(trifluoromethyl)phenyl]methyl}carbamoyl)-D-prolyl]amino}phenyl)pyridine-2-carboxylic acid] showed an IC50 of 35 nM.

`O=C(O)c1ccc(-c2ccc(NC(=O)[C@H]3CCCN3C(=O)Nc3ccc(C(F)(F)F)cc3)cc2)cn1` [Example 196, 5-{4-[(1-{[4-(trifluoromethyl)phenyl]carbamoyl}-D-prolyl)amino]phenyl}pyridine-2-carboxylic acid] gave an IC50 of 49 nM.

`O=C(O)c1ccc(-c2ccc(NC(=O)[C@H]3CCCN3C(=O)Nc3ccc(C4(C(F)(F)F)CC4)cc3)cc2)cn1` [Example 197, 5-(4-{[1-({4-[1-(trifluoromethyl)cyclopropyl]phenyl}carbamoyl)-D-prolyl]amino}phenyl)pyridine-2-carboxylic acid] was tested, and the IC50 was 29 nM.

`Cc1cc(NC(=O)N2CCC[C@@H]2C(=O)Nc2ccc(-c3ccc(C(=O)O)cc3)nc2)ncc1C(C)C` [Example 198, 4-{5-[(1-{[4-methyl-5-(propan-2-yl)pyridin-2-yl]carbamoyl}-D-prolyl)amino]pyridin-2-yl}benzoic acid] was tested, and the IC50 was 69 nM.

Work on `CC(C)c1ccc(NC(=O)N2CCC[C@@H]2C(=O)Nc2ccc(-c3ccc(C(=O)O)c(F)c3)cn2)cc1` [Example 199, 2-fluoro-4-{6-[(1-{[4-(propan-2-yl)phenyl]carbamoyl}-D-prolyl)amino]pyridin-3-yl}benzoic acid] yielded an IC50 of 71 nM.

Work on `Cc1cc(-c2ccc(NC(=O)[C@H]3CCCN3C(=O)Nc3ccc(C(C)C)cc3)nc2)ccc1C(=O)O` [Example 200, 2-methyl-4-{6-[(1-{[4-(propan-2-yl)phenyl]carbamoyl}-D-prolyl)amino]pyridin-3-yl}benzoic acid] yielded an IC50 of 9.9 nM.

For `Cc1cc(NC(=O)N2CCC[C@@H]2C(=O)Nc2ccc(-c3ccc(C(=O)O)nc3)cn2)ccc1C(C)C` [Example 201, ammonium 6′-[(1-{[3-methyl-4-(propan-2-yl)phenyl]carbamoyl}-D-prolyl)amino][3,3′-bipyridine]-6-carboxylate], the IC50 was 91 nM.

`Cc1cc(NC(=O)N2CCC[C@@H]2C(=O)Nc2ccc(-c3cccc(C(=O)O)c3)cn2)ncc1C(F)(F)F` [Example 202, 3-{6-[(1-{[4-methyl-5-(trifluoromethyl)pyridin-2-yl]carbamoyl}-D-prolyl)amino]pyridin-3-yl}benzoic acid] gave an IC50 of 22 nM.

`Cc1cc(NC(=O)N2CCC[C@@H]2C(=O)Nc2ccc(-c3ccc(C(=O)O)cc3)cc2)ncc1C(F)(F)F` [Example 203, 4′-[(1-{[4-methyl-5-(trifluoromethyl)pyridin-2-yl]carbamoyl}-D-prolyl)amino][1,1′-biphenyl]-4-carboxylic acid] showed an IC50 of 8.4 nM.
